Results from the NIST ThermoML archive (doi:10.1016/j.jct.2011.12.025).

Assay: xn = mol fraction of the nth substance listed
Details: 296.15 K, 101 kPa, Liquid, WTW LF538 Conductivity Meter

CCCCCCn1cc[n+](C)c1.F[B-](F)(F)F [1-hexyl-3-methylimidazolium tetrafluoroborate] + O
Details | electrical conductivity [S/m]
x1 = 0.000466 | 0.231
x1 = 0.000711 | 0.329
x1 = 0.000949 | 0.419
x1 = 0.001193 | 0.505
x1 = 0.001435 | 0.584
x1 = 0.001677 | 0.663
x1 = 0.001925 | 0.74
x1 = 0.002172 | 0.812
x1 = 0.002421 | 0.875
x1 = 0.002671 | 0.949
x1 = 0.002925 | 1.014
x1 = 0.003177 | 1.07
x1 = 0.003433 | 1.126
x1 = 0.003948 | 1.25
x1 = 0.004469 | 1.36
x1 = 0.005 | 1.447

CCCCCCCC[n+]1ccn(C)c1.F[B-](F)(F)F [1-methyl-3-octylimidazolium tetrafluoroborate] + O
Details | electrical conductivity [S/m]
x1 = 0.000109 | 0.067
x1 = 0.000164 | 0.095
x1 = 0.000219 | 0.123
x1 = 0.000274 | 0.149
x1 = 0.000326 | 0.172
x1 = 0.000384 | 0.196
x1 = 0.000439 | 0.22
x1 = 0.000494 | 0.24
x1 = 0.000549 | 0.262
x1 = 0.000605 | 0.284
x1 = 0.00066 | 0.305
x1 = 0.000715 | 0.326
x1 = 0.000772 | 0.346
x1 = 0.000883 | 0.386
x1 = 0.000995 | 0.424
x1 = 0.001107 | 0.463

CCCCCCCCCCn1cc[n+](C)c1.F[B-](F)(F)F [1-decyl-3-methylimidazolium tetrafluoroborate] + O
Details | electrical conductivity [S/m]
x1 = 2.5e-05 | 0.018
x1 = 3.8e-05 | 0.026
x1 = 5.1e-05 | 0.034
x1 = 6.4e-05 | 0.042
x1 = 7.6e-05 | 0.049
x1 = 8.9e-05 | 0.056
x1 = 0.000102 | 0.063
x1 = 0.000115 | 0.07
x1 = 0.000128 | 0.076
x1 = 0.000139 | 0.082
x1 = 0.000153 | 0.089
x1 = 0.000166 | 0.096
x1 = 0.000179 | 0.101
x1 = 0.000204 | 0.113
x1 = 0.00023 | 0.125
x1 = 0.000256 | 0.137
